Active and inactive are the calls of the source. How the calls were made is not given here. Non-standard residues stand in square brackets, D forms with d. Residues, ends and D or L forms follow the SMILES beside them. hArg = N=C(N)NCCCC[C@H](N)C(=O)O; Agb = N=C(N)NCC[C@H](N)C(=O)O; Agp = N=C(N)NC[C@H](N)C(=O)O; Orn = NCCC[C@H](N)C(=O)O; Dab = NCC[C@H](N)C(=O)O; Dap = NC[C@H](N)C(=O)O
Tests used:
Staphylococcus aureus [1] = test: Antibiofilm activity against methicillin-resistant Staphylococcus aureus assessed as inhibition of biofilm formation by measuring residual biofilm growth incubated for overnight at 10-fold dilution by crystal violet staining based microtiter plate assay relative to control; assay type: functional
Staphylococcus aureus [2] = test: Antibiofilm activity against methicillin-resistant Staphylococcus aureus assessed as inhibition of biofilm formation incubated for overnight by crystal violet staining based microtiter plate assay; assay type: functional, organism-based
Staphylococcus aureus [3] = test: Antibacterial activity against methicillin-resistant Staphylococcus aureus assessed as alteration in bacterial growth incubated for overnight by microtiter plate based spectrophotometric analysis; assay type: functional, organism-based

| Compound | residual biofilm growth (% of control) (Staphylococcus aureus [1]) [%] | inhibition (Staphylococcus aureus [2]) | Activity (Staphylococcus aureus [3]) |
| --- | --- | --- | --- |
| CC[C@H](C)[C@H](NC(=O)[C@H](CCCNC(=N)N)NC(=O)[C@@H](NC(=O)[C@H](C)NC(=O)[C@@H](NC(=O)[C@@H](NC(=O)[C@H](CNC(=N)N)NC(=O)[C@H](CCCNC(=N)N)NC(=O)[C@@H](N)C(C)C)[C@@H](C)CC)C(C)C)C(C)C)C(=O)N[C@@H](Cc1c[nH]c2ccccc12)C(=O)N[C@@H](CCCNC(=N)N)C(=O)N[C@@H](CCCNC(=N)N)C(N)=O (H-VR[Agp]IVAVRIWRR-NH2) | 102.2 | Dose-dependent effect | Active |
| CC[C@H](C)[C@H](NC(=O)[C@H](CCCNC(=N)N)NC(=O)[C@@H](NC(=O)[C@H](C)NC(=O)[C@@H](NC(=O)[C@@H](NC(=O)[C@H](CCN)NC(=O)[C@H](CCCNC(=N)N)NC(=O)[C@@H](N)C(C)C)[C@@H](C)CC)C(C)C)C(C)C)C(=O)N[C@@H](Cc1c[nH]c2ccccc12)C(=O)N[C@@H](CCCNC(=N)N)C(=O)N[C@@H](CCCNC(=N)N)C(N)=O (H-VR[Dab]IVAVRIWRR-NH2) | 48.6 | Dose-dependent effect | Active |
| CC[C@H](C)[C@H](NC(=O)[C@H](CCCNC(=N)N)NC(=O)[C@@H](NC(=O)[C@H](C)NC(=O)[C@@H](NC(=O)[C@@H](NC(=O)[C@H](CN)NC(=O)[C@H](CCCNC(=N)N)NC(=O)[C@@H](N)C(C)C)[C@@H](C)CC)C(C)C)C(C)C)C(=O)N[C@@H](Cc1c[nH]c2ccccc12)C(=O)N[C@@H](CCCNC(=N)N)C(=O)N[C@@H](CCCNC(=N)N)C(N)=O (H-VR[Dap]IVAVRIWRR-NH2) | 104.7 | Dose-dependent effect | Active |
| CC[C@H](C)[C@H](NC(=O)[C@H](CCCNC(=N)N)NC(=O)[C@@H](NC(=O)[C@H](C)NC(=O)[C@@H](NC(=O)[C@@H](NC(=O)[C@H](CCCN)NC(=O)[C@H](CCCNC(=N)N)NC(=O)[C@@H](N)C(C)C)[C@@H](C)CC)C(C)C)C(C)C)C(=O)N[C@@H](Cc1c[nH]c2ccccc12)C(=O)N[C@@H](CCCNC(=N)N)C(=O)N[C@@H](CCCNC(=N)N)C(N)=O (H-VR[Orn]IVAVRIWRR-NH2) | 99.3 | Dose-dependent effect | Active |
| CC[C@H](C)[C@H](NC(=O)[C@H](CCCNC(=N)N)NC(=O)[C@@H](NC(=O)[C@H](C)NC(=O)[C@@H](NC(=O)[C@@H](NC(=O)[C@H](CCCCNC(=N)N)NC(=O)[C@H](CCCNC(=N)N)NC(=O)[C@@H](N)C(C)C)[C@@H](C)CC)C(C)C)C(C)C)C(=O)N[C@@H](Cc1c[nH]c2ccccc12)C(=O)N[C@@H](CCCNC(=N)N)C(=O)N[C@@H](CCCNC(=N)N)C(N)=O (H-VR[hArg]IVAVRIWRR-NH2) | 108.6 | Dose-dependent effect | Active |
| CC[C@H](C)[C@H](NC(=O)[C@H](CCCNC(=N)N)NC(=O)[C@@H](NC(=O)[C@H](C)NC(=O)[C@@H](NC(=O)[C@@H](NC(=O)[C@H](CC(C)C)NC(=O)[C@H](CCNC(=N)N)NC(=O)[C@@H](N)C(C)C)[C@@H](C)CC)C(C)C)C(C)C)C(=O)N[C@@H](Cc1c[nH]c2ccccc12)C(=O)N[C@@H](CCCNC(=N)N)C(=O)N[C@@H](CCCNC(=N)N)C(N)=O (H-V[Agb]LIVAVRIWRR-NH2) | 29.6 | Dose-dependent effect | Active |
| CC[C@H](C)[C@H](NC(=O)[C@H](CCCNC(=N)N)NC(=O)[C@@H](NC(=O)[C@H](C)NC(=O)[C@@H](NC(=O)[C@@H](NC(=O)[C@H](CC(C)C)NC(=O)[C@H](CNC(=N)N)NC(=O)[C@@H](N)C(C)C)[C@@H](C)CC)C(C)C)C(C)C)C(=O)N[C@@H](Cc1c[nH]c2ccccc12)C(=O)N[C@@H](CCCNC(=N)N)C(=O)N[C@@H](CCCNC(=N)N)C(N)=O (H-V[Agp]LIVAVRIWRR-NH2) | 28.3 | Dose-dependent effect | Active |
| CC[C@H](C)[C@H](NC(=O)[C@H](CCCNC(=N)N)NC(=O)[C@@H](NC(=O)[C@H](C)NC(=O)[C@@H](NC(=O)[C@@H](NC(=O)[C@H](CC(C)C)NC(=O)[C@H](CCN)NC(=O)[C@@H](N)C(C)C)[C@@H](C)CC)C(C)C)C(C)C)C(=O)N[C@@H](Cc1c[nH]c2ccccc12)C(=O)N[C@@H](CCCNC(=N)N)C(=O)N[C@@H](CCCNC(=N)N)C(N)=O (H-V[Dab]LIVAVRIWRR-NH2) | 21.5 | Dose-dependent effect | Active |
| CC[C@H](C)[C@H](NC(=O)[C@H](CCCNC(=N)N)NC(=O)[C@@H](NC(=O)[C@H](C)NC(=O)[C@@H](NC(=O)[C@@H](NC(=O)[C@H](CC(C)C)NC(=O)[C@H](CN)NC(=O)[C@@H](N)C(C)C)[C@@H](C)CC)C(C)C)C(C)C)C(=O)N[C@@H](Cc1c[nH]c2ccccc12)C(=O)N[C@@H](CCCNC(=N)N)C(=O)N[C@@H](CCCNC(=N)N)C(N)=O (H-V[Dap]LIVAVRIWRR-NH2) | 19.1 | Dose-dependent effect | Active |
| CC[C@H](C)[C@H](NC(=O)[C@H](CCCNC(=N)N)NC(=O)[C@@H](NC(=O)[C@H](C)NC(=O)[C@@H](NC(=O)[C@@H](NC(=O)[C@H](CC(C)C)NC(=O)[C@H](CCCN)NC(=O)[C@@H](N)C(C)C)[C@@H](C)CC)C(C)C)C(C)C)C(=O)N[C@@H](Cc1c[nH]c2ccccc12)C(=O)N[C@@H](CCCNC(=N)N)C(=O)N[C@@H](CCCNC(=N)N)C(N)=O (H-V[Orn]LIVAVRIWRR-NH2) | 13.2 | Dose-dependent effect | Active |
| CC[C@H](C)[C@H](NC(=O)[C@H](CCCNC(=N)N)NC(=O)[C@@H](NC(=O)[C@H](C)NC(=O)[C@@H](NC(=O)[C@@H](NC(=O)[C@H](CC(C)C)NC(=O)[C@H](CCCCNC(=N)N)NC(=O)[C@@H](N)C(C)C)[C@@H](C)CC)C(C)C)C(C)C)C(=O)N[C@@H](Cc1c[nH]c2ccccc12)C(=O)N[C@@H](CCCNC(=N)N)C(=O)N[C@@H](CCCNC(=N)N)C(N)=O (H-V[hArg]LIVAVRIWRR-NH2) | 38.4 | Dose-dependent effect | Active |
| CC[C@H](C)[C@H](NC(=O)[C@H](CCCNC(=N)N)NC(=O)[C@@H](NC(=O)[C@H](C)NC(=O)[C@@H](NC(=O)[C@@H](NC(=O)[C@H](CC(C)C)NC(=O)[C@H](CCCNC(=N)N)NC(=O)[C@@H](N)CCNC(=N)N)[C@@H](C)CC)C(C)C)C(C)C)C(=O)N[C@@H](Cc1c[nH]c2ccccc12)C(=O)N[C@@H](CCCNC(=N)N)C(=O)N[C@@H](CCCNC(=N)N)C(N)=O (H-[Agb]RLIVAVRIWRR-NH2) | 13.6 | Dose-dependent effect | Active |
| CC[C@H](C)[C@H](NC(=O)[C@H](CCCNC(=N)N)NC(=O)[C@@H](NC(=O)[C@H](C)NC(=O)[C@@H](NC(=O)[C@@H](NC(=O)[C@H](CC(C)C)NC(=O)[C@H](CCCNC(=N)N)NC(=O)[C@@H](N)CNC(=N)N)[C@@H](C)CC)C(C)C)C(C)C)C(=O)N[C@@H](Cc1c[nH]c2ccccc12)C(=O)N[C@@H](CCCNC(=N)N)C(=O)N[C@@H](CCCNC(=N)N)C(N)=O (H-[Agp]RLIVAVRIWRR-NH2) | 10.6 | Dose-dependent effect | Active |
| CC[C@H](C)[C@H](NC(=O)[C@H](CCCNC(=N)N)NC(=O)[C@@H](NC(=O)[C@H](C)NC(=O)[C@@H](NC(=O)[C@@H](NC(=O)[C@H](CC(C)C)NC(=O)[C@H](CCCNC(=N)N)NC(=O)[C@@H](N)CCN)[C@@H](C)CC)C(C)C)C(C)C)C(=O)N[C@@H](Cc1c[nH]c2ccccc12)C(=O)N[C@@H](CCCNC(=N)N)C(=O)N[C@@H](CCCNC(=N)N)C(N)=O (H-[Dab]RLIVAVRIWRR-NH2) | 14.2 | Dose-dependent effect | Active |
| CC[C@H](C)[C@H](NC(=O)[C@H](CCCNC(=N)N)NC(=O)[C@@H](NC(=O)[C@H](C)NC(=O)[C@@H](NC(=O)[C@@H](NC(=O)[C@H](CC(C)C)NC(=O)[C@H](CCCNC(=N)N)NC(=O)[C@@H](N)CN)[C@@H](C)CC)C(C)C)C(C)C)C(=O)N[C@@H](Cc1c[nH]c2ccccc12)C(=O)N[C@@H](CCCNC(=N)N)C(=O)N[C@@H](CCCNC(=N)N)C(N)=O (H-[Dap]RLIVAVRIWRR-NH2) | 8.5 | Dose-dependent effect | Active |
| CC[C@H](C)[C@H](NC(=O)[C@H](CCCNC(=N)N)NC(=O)[C@@H](NC(=O)[C@H](C)NC(=O)[C@@H](NC(=O)[C@@H](NC(=O)[C@H](CC(C)C)NC(=O)[C@H](CCCNC(=N)N)NC(=O)[C@@H](N)CCCN)[C@@H](C)CC)C(C)C)C(C)C)C(=O)N[C@@H](Cc1c[nH]c2ccccc12)C(=O)N[C@@H](CCCNC(=N)N)C(=O)N[C@@H](CCCNC(=N)N)C(N)=O (H-[Orn]RLIVAVRIWRR-NH2) | 12.2 | Dose-dependent effect | Active |
| CC[C@H](C)[C@H](NC(=O)[C@H](CCCNC(=N)N)NC(=O)[C@@H](NC(=O)[C@H](C)NC(=O)[C@@H](NC(=O)[C@@H](NC(=O)[C@H](CC(C)C)NC(=O)[C@H](CCCNC(=N)N)NC(=O)[C@@H](N)CCCCNC(=N)N)[C@@H](C)CC)C(C)C)C(C)C)C(=O)N[C@@H](Cc1c[nH]c2ccccc12)C(=O)N[C@@H](CCCNC(=N)N)C(=O)N[C@@H](CCCNC(=N)N)C(N)=O (H-[hArg]RLIVAVRIWRR-NH2) | 17.1 | Dose-dependent effect | Active |
| H-KRLIVAVRIWRR-NH2 | 12 | Dose-dependent effect | Active |
| H-RRLIVAVRIWRR-NH2 | 12.2 | Dose-dependent effect | Active |
| H-VKLIVAVRIWRR-NH2 | 7.6 | Dose-dependent effect | Active |
| H-VRKIVAVRIWRR-NH2 | 88.8 | Dose-dependent effect | Active |

Reference: ChEMBL document CHEMBL4376833, “Influence of Non-natural Cationic Amino Acids on the Biological Activity Profile of Innate Defense Regulator Peptides” (J Med Chem, 2019)
